Results on 18 compounds are retold here after US20240398783A1, “Compounds and Pharmaceutical Compositions Comprising Inhibitors of Amyloid Peptide Interactions with Glycosaminoglycans, Methods of Treatment and Use Thereof” (Gismo Therapeutics, Inc., priority 2021, published 2024).

Assay [1] concerns the target Amyloid-beta(1-40) binding to heparin (HS-GAG) (Homo sapiens, UniProt P05067). As to the kind of experiment: Inhibition of Amyloid-beta(1-40) binding to immobilized heparin-BSA (ELISA). On the set-up: species or system porcine. As to conditions: for IC50: co-incubation on heparin-BSA plates; for inhibition at 30 µM: read-out: Abeta40/Heparin Activity (% inhibition class). How it is done:
(§1) Porcine intestinal mucosa heparin conjugated to Bovine Serum Albumin (Heparin-BSA) was prepared as described (Najjam, S. et al. 1997, Cytokine 12, 1013-1022). Heparin is a sulfated HS-GAG and is commonly used as a HS-GAG in biochemical and binding assays (Lindahl, U. and Kjellen, L. (2013) ibid). Heparin-BSA at 0.01 mg/ml in Phosphate Buffered Saline (PBS; pH 7.4) was added to a 96 well polystyrene ELISA plate (NUNC Cat. No. 449824; 100 μl per well) and incubated Over Night (ON) at 4 degrees Celsius. For negative controls, ELISA plates were coated with BSA instead of Heparin-BSA, using the same procedure. Following the incubation, the plate was washed consecutively, by immersion, with de-ionized water and PBS (pH 7.4). The ELISA plate was then blocked with nonfat milk (2%, 200 μl per well) for 2 hours at Room Temperature (RT) with gentle shaking. Following blocking, the plate was washed with de-ionized water then PBS (pH 7.4). GBAPs were dissolved and diluted in PBS (pH 6.5, supplemented with 0.1% BSA) at desired concentrations, added to the ELISA plates containing immobilized Heparin-BSA (100 μl per well) and incubated for 2 hours at RT with gentle shaking. Following incubation, the plate was washed with de-ionized water and three times with PBS (pH 6.5) plus Tween. Bound GBAP was detected by a monoclonal antibody specific for that GBAP, followed by incubation with secondary antibody conjugated to horseradish peroxidase (HRP). Antibody was diluted in PBS (pH 6.5 supplemented with 1% BSA). Following each incubation with antibody, the plate was washed with de-ionized water and three times with PBS (pH 6.5) wash buffer containing 0.1% Tween. The peroxidase substrate chromogen, TMB (Dako Cat. No. S1599) was added (100 μl per well) to the ELISA plate and incubated at room temperature. After 5 minutes ELISA Stop Solution (hydrochloric acid 1N, sulfuric acid 3N) was added (100 μl per well) to stop the peroxidase catalyzed colorimetric reaction. The Optical Density of the samples was measured at 450 nm using an ELISA plate reader (BioTek Synergy H1). Following color development, the % inhibition compared to control (BSA-coated plates) was determined. IC-50s were calculated using GraphPad Prism software.
The assay was performed as described in Example 43, with the following modifications. Following to coating the plates with Heparin-BSA, plates were washed as described. The compounds were dissolved in DMSO at 10 mM final concentration and further diluted prior to assay. DMSO concentration in the screening well was up to 2%. Individual compounds were co-incubated with Beta-amyloid peptides on plates containing immobilized heparin. Beta-amyloid (1-42) was purchased from rPeptide (Cat. No. A1163) and used to prepare oligomers according to Stine et al., 2003 (J Biol Chem. 278(13):11612-22) as follows. 1,1,1,3,3,3-Hexafluoro-2-propanol- (HFIP; Sigma Cat. No. 105228)-treated Beta amyloid (1-42) was dissolved in dry DMSO (Sigma Cat. No. D2650) to 5 mM concentration. Dissolved Beta amyloid (1-42) was then diluted to 100 μM in ice-cold cell culture medium (phenol red-free Ham's F-12; Caisson Labs, Cat. No. HFL05), followed immediately by vortexing for 30 seconds, and incubating at 4 degrees Celsius for 24 h. Resulting Beta amyloid (1-42) oligomers were centrifuged at 12,000 rpm for 10 min at 4 degree Celsius to remove aggregates. Oligomers were then quickly frozen and kept in aliquots at −80 degrees Celsius. Beta-amyloid (1-40) from rPeptide (Cat No. A1153) was dissolved in DMSO, quickly frozen and kept in aliquots at −80 degrees Celsius. Beta-amyloid (1-42) oligomers or Beta-amyloid (1-40) diluted in PBS (pH 6.5, supplemented with BSA, 0.1%) were added to the ELISA plate (100 μl per well) and incubated for 2 hours at RT with gentle shaking. Following the incubation, the plate was washed with de-ionized water and three times with PBS (pH 6.5) plus Tween. […]
(In general: An ELISA detects its analyte on a solid surface through an enzyme-linked reagent.)

Assay [2] concerns the target Tau binding to heparin (HS-GAG) (Homo sapiens, UniProt P10636). As to the kind of experiment: Inhibition of Tau binding to immobilized heparin-BSA (ELISA). On the set-up: species or system porcine. To be noted: for IC50: Tau, heparin-BSA; for inhibition at 30 µM: read-out: Tau/Heparin Activity (% inhibition class). How it is done:
as §1
The assay was performed as described in Example 43, with the following modifications. Following to coating the plates with Heparin-BSA, plates were washed as described. The compounds were dissolved in DMSO at 10 mM final concentration and further diluted prior to assay. DMSO concentration in the screening well was up to 2%. Individual compounds were co-incubated with Tau on plates containing immobilized heparin. Tau purchased from rPeptide (Cat. No. T1001) was dissolved in DMSO (Sigma Cat. No. D2650), quickly frozen and kept in aliquots at −80 degrees Celsius. Tau dissolved in PBS (pH 6.5, supplemented with BSA, 0.1%) was added to the ELISA plate (100 μl per well) and incubated for 2 hours at RT with gentle shaking. Following the incubation, the plate was washed with de-ionized water and three times with PBS (pH 6.5) plus Tween. Bound Tau was detected by anti-Tau Monoclonal Antibody D-8 (Santa Cruz Cat. No. sc-166060), followed by secondary anti-IgG antibody conjugated to HRP (R&D System, Cat. No. HAF007). Following to color development with TMB, as described in Example 43, the Optical Density of the samples was measured at 450 nm using an ELISA plate reader. Following color development, the % inhibition compared to control (no compound, DMSO control) for every compound was determined.
An example of inhibition curve is shown in FIG. 3 for Inhibitor Compounds 3 and 6. As described in Example 43, Heparin in the form of Heparin-BSA conjugate is used as a source of HS-GAG. For each compound IC-50 value in Tau—heparin-BSA binding assay is shown in […]. In some cases IC-50 was not measured and […] at 30 μM compound concentration is shown instead. […]

The mark [3] stands for this setting: Abeta40/Heparin Activity (IC-50), Abeta(1-40).
[4] abbreviates: Abeta(1-40), read-out: Abeta40/Heparin Activity (IC-50).
The mark [5] stands for this setting: read-out: Tau/Heparin Activity (IC-50).

Structures are written as SMILES. Counter-ions that a name gives are not always drawn. Like-named read-outs stand apart in the source and are kept apart here.

Tau binding to heparin (HS-GAG), sequence (P10636 with tags, fused parts or gaps): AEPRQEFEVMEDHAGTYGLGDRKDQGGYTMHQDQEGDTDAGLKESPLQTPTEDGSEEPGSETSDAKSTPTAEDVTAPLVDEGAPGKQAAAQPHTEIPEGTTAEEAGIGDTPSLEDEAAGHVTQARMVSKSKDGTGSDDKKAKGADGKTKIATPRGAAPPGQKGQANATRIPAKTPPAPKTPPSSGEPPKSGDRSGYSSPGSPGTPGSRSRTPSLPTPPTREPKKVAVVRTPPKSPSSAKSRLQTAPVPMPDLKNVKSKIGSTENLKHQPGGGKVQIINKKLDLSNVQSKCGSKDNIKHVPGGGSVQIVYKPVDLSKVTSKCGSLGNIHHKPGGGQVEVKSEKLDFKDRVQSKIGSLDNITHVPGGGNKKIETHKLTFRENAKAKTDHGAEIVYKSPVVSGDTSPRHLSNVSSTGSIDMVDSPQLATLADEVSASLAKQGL
Amyloid-beta(1-40) binding to heparin (HS-GAG), sequence (P05067 672-711): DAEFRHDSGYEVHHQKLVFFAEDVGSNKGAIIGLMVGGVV

Turning to `C/C(=N\Nc1ncnc2cc(F)ccc12)c1ccc(-n2cc[n+](C)c2)nc1` [Compound 26, (E)-1-(5-(1-(2-(7-fluoroquinazolin-4-yl)hydrazineylidene)ethyl)pyridin-2-yl)-3-methyl-1H-imidazol-3-ium phosphoric acid salt], the IC50 in assay [1] (setting [3]) came out at 10.2 µM; in assay [2] (Tau/Heparin Activity (IC-50)) it was 17.7 µM.
Turning to `Clc1ccc2c(Nc3ccc(-n4cncn4)nc3)ncnc2c1` [Compound 34, N-(6-(1H-1,2,4-triazol-1-yl)pyridin-3-yl)-7-chloroquinazolin-4-amine phosphoric acid salt], in assay [1] (setting [3]), the IC50 is 34.8 µM. Moreover, the inhibition at 30 µM in assay [2] was below 30%.
For the compound `C[N+](C)(C)Cc1ccc(/C=N\Nc2ccnc3ccc(Cl)cc23)cc1` [Compound 4, (Z)-1-(4-((2-(6-chloroquinolin-4-yl)hydrazineylidene)methyl)phenyl)—N,N,N-trimethylmethanaminium iodide], the values for the IC50 in assay [1] (setting [3]) and in assay [2] (Tau/Heparin Activity (IC-50)) were 51.3 µM and 29.2 µM, respectively.
In the case of `Cc1ncn(-c2ccc(Nc3ncnc4cc(Cl)ccc34)cn2)c1C` [Compound 25, 7-chloro-N-(6-(4,5-dimethyl-1H-imidazol-1-yl)pyridin-3-yl)quinazolin-4-amine], the IC50 in assay [1] (setting [3]) came to 1.7 µM. Besides, the inhibition at 30 µM in assay [2] was below 30%.
As to `C/C(=N\Nc1ncnc2cc(Cl)ccc12)c1cccc(N2CCN(C)CC2)c1` [Compound 30, 7-chloro-4-(2-(1-(3-(4-methylpiperazin-1-yl)phenyl)ethylidene)hydrazineyl)quinazoline], the inhibition at 30 µM in assay [1] was above 30%. Moreover, the IC50 in assay [2] (Tau/Heparin Activity (IC-50)) came out at 32.2 µM.
On to `Clc1ccc2c(N/N=C/c3ccc(-n4ccnc4)nc3)ccnc2c1` [Compound 14, (E)-4-(2-((6-(1H-imidazol-1-yl)pyridin-3-yl)methylene)hydrazineyl)-7-chloroquinoline hydrochloride], for which the IC50 in assay [1] (setting [3]) was found to be 7.77 µM; in assay [2] (Tau/Heparin Activity (IC-50)) it was 20.3 µM.
Take `COc1cc(Nc2nncc3cc(Cl)ccc23)cnc1-n1cnc(C)c1C` [Compound 31, 6-chloro-N-(6-(4,5-dimethyl-1H-imidazol-1-yl)-5-methoxypyridin-3-yl)phthalazin-1-amine phosphoric acid salt]: the IC50 in assay [1] (setting [3]) was 23.3 µM; in assay [2] (Tau/Heparin Activity (IC-50)), 33.7 µM.
Take `CC(=NNc1ccnc2cc(Cl)ccc12)c1ccc(-n2ccnc2)cc1` [Compound 36, 4-(2-(1-(4-(1H-imidazol-1-yl)phenyl)ethylidene)hydrazineyl)-7-chloroquinoline phosphate]: the IC50 in assay [1] (setting [3]) was determined as 13.8 µM; in assay [2] (Tau/Heparin Activity (IC-50)), 28.5 µM.
For the compound `C/C(=N\Nc1nncc2cc(Cl)ccc12)c1ccc(-n2cc(C)nc2C)nc1` [Compound 24, (E)-6-chloro-1-(2-(1-(6-(2,4-dimethyl-1H-imidazol-1-yl)pyridin-3-yl)ethylidene)hydrazineyl)phthalazine], the IC50 in assay [1] (setting [4]) came out at 6.42 µM; in assay [2] (setting [5]) it was 37.9 µM.
For the compound `Clc1ccc2c(Nc3ccc(-n4cncn4)nc3)ccnc2c1` [Compound 44, N-(6-(1H-1,2,4-triazol-1-yl)pyridin-3-yl)-7-chloroquinolin-4-amine], the IC50 in assay [1] (setting [3]) was 19.3 µM. For the same compound, the inhibition at 30 µM in assay [2] was above 30%.
Turning to `C/C(=N\Nc1ncnc2cc(Cl)ccc12)c1ccc(-n2cc[n+](C)c2)nc1` [Compound 17, (E)-1-(5-(1-(2-(7-chloroquinazolin-4-yl)hydrazineylidene)ethyl)pyridin-2-yl)-3-methyl-1H-imidazol-3-ium iodide phosphoric acid salt], the IC50 in assay [1] (setting [3]) stood at 28.1 µM; in assay [2] (Tau/Heparin Activity (IC-50)), 12.2 µM.
Turning to `Fc1ccc2c(N/N=C/c3ccc(CN4CCOCC4)cc3)ccnc2c1` [Compound 6, (E)-4-(4-((2-(7-fluoroquinolin-4-yl)hydrazono)methyl)benzyl)morpholine], the inhibition at 30 µM in assay [1] (30 μM compound, Abeta(1-40), heparin-BSA) is above 30%. In addition, the IC50 in assay [2] (Tau/Heparin Activity (IC-50)) came out at 2.27 µM.
As for `CN1CCN(Cc2ccc(/C=N/Nc3ccnc4cc(Cl)ccc34)cc2)CC1` [Compound 7, (E)-7-chloro-4-(2-(4-((4-methylpiperazin-1-yl)methyl)benzylidene)hydrazinyl)quinolone], the IC50 in assay [1] (setting [3]) worked out at 25.2 µM; in assay [2] (Tau/Heparin Activity (IC-50)), 15.5 µM.
For the compound `C/C(=N\Nc1ncnc2cc(Cl)ccc12)c1ccc(-n2cc(C)nc2C)nc1` [Compound 27, (E)-7-chloro-4-(2-(1-(6-(2,4-dimethyl-1H-imidazol-1-yl)pyridin-3-yl)ethylidene)hydrazineyl)quinazoline hydrochloride], the IC50 worked out at 2.2 µM in assay [1] (setting [3]) and 2.86 µM in assay [2] (setting [5]).
On to `Clc1ccc2c(N/N=C/c3ccc(-n4cccn4)cc3)ccnc2c1` [Compound 3, (E)-4-((E)-(4-(1H-pyrazol-1-yl)benzylidene)hydrazono)-7-chloro-1,4-dihydroquinoline], for which the IC50 in assay [1] (setting [3]) was 2.75 µM; in assay [2] (Tau/Heparin Activity (IC-50)), 1.56 µM.
For the compound `Clc1ccc2c(Nc3ccc(-n4ccnc4)nc3)ncnc2c1` [Compound 41, N-(6-(1H-imidazol-1-yl)pyridin-3-yl)-7-chloroquinazolin-4-amine], the IC50 worked out at 32.7 µM in assay [1] (setting [4]) and 14.7 µM in assay [2] (setting [5]).
On to `Clc1ccc2c(N/N=C/c3ccc(-n4ccnc4)cc3)ccnc2c1` [Compound 38, 4-(2-(4-(1H-imidazol-1-yl)benzylidene)hydrazineyl)-7-chloroquinoline dihydrochloride], for which the IC50 worked out at 1.28 µM in assay [1] (setting [3]) and 2.94 µM in assay [2] (Tau/Heparin Activity (IC-50)).
With `Cc1cc(-n2ccnc2)ccc1/C=N/Nc1ccnc2cc(Cl)ccc12` [Compound 1, (E)-4-((E)-(4-(1H-imidazol-1-yl)-2-methylbenzylidene)hydrazono)-7-chloro-1,4-dihydroquinoline], the IC50 in assay [1] (setting [4]) came out at 3.67 µM; in assay [2] (setting [5]), 1.38 µM.
